Data taken from ChEMBL document CHEMBL1201862, “PubChem BioAssay data set” (2004).
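The compound was tested at five concentrations on cells cultured in 96-well plates, with a 48-hour exposure period. GI50 is the concentration that inhibits growth by half.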 Calls of active or inactive are those of the source. Rule as the data show it: active = GI50 up to about 1.1 µM and inactive = higher.

Experiments:
Test in all cases: NCI tumour cell line growth inhibition, 48 h
[1] = test system: HOP-62
[2] = test system: HT-29
[3] = test system: OVCAR-5
[4] = test system: COLO 205
[5] = test system: TK-10
[6] = test system: SF-268
[7] = test system: NCI-H522
[8] = test system: NCI-H226
[9] = test system: M14
[10] = test system: NCI-H23
[11] = test system: UACC-62
[12] = test system: SNB-75
[13] = test system: SNB-19
[14] = test system: RPMI-8226
[15] = test system: SK-MEL-28
[16] = test system: SR
[17] = test system: SK-OV-3
[18] = test system: HCT-116

| Compound | GI50 [1] | GI50 [2] | GI50 [3] | GI50 [4] | GI50 [5] | GI50 [6] | GI50 [7] | GI50 [8] | GI50 [9] | GI50 [10] | GI50 [11] | GI50 [12] | GI50 [13] | GI50 [14] | GI50 [15] | GI50 [16] | GI50 [17] | GI50 [18] |
| --- | --- | --- | --- | --- | --- | --- | --- | --- | --- | --- | --- | --- | --- | --- | --- | --- | --- | --- |
| CCO/C=C1\N=C(C(Cl)c2ccccc2)OC1=O (stereo not given) | > 100 µM (inactive) | > 100 µM (inactive) | > 100 µM (inactive) | > 100 µM (inactive) | > 100 µM (inactive) | > 100 µM (inactive) | > 100 µM (inactive) | > 100 µM (inactive) | > 100 µM (inactive) | > 100 µM (inactive) | > 100 µM (inactive) | > 100 µM (inactive) | > 100 µM (inactive) | > 100 µM (inactive) | > 100 µM (inactive) | – | – | – |
| Cc1cc(=O)c2c(O)cc3c(c2o1)CC=C(COC1OC(COC2OC(CO)C(O)C(O)C2O)C(O)C(O)C1O)CO3 (stereo not given) | > 100 µM (inactive) | – | > 100 µM (inactive) | > 100 µM (inactive) | > 100 µM (inactive) | > 100 µM (inactive) | > 100 µM (inactive) | > 100 µM (inactive) | > 100 µM (inactive) | > 100 µM (inactive) | > 100 µM (inactive) | > 100 µM (inactive) | > 100 µM (inactive) | – | > 100 µM (inactive) | > 100 µM (inactive) | > 100 µM (inactive) | > 100 µM (inactive) |
| CN1C2C=C(c3ccccc3)CC1CC2 (stereo not given) | – | > 100 µM (inactive) | > 100 µM (inactive) | > 100 µM (inactive) | > 100 µM (inactive) | > 100 µM (inactive) | > 100 µM (inactive) | – | > 100 µM (inactive) | > 100 µM (inactive) | > 100 µM (inactive) | 56.1 µM (inactive) | > 100 µM (inactive) | > 100 µM (inactive) | > 100 µM (inactive) | > 100 µM (inactive) | > 100 µM (inactive) | > 100 µM (inactive) |
| CC#C[I+]c1ccccc1 | 35.3 µM (inactive) | 17.3 µM (inactive) | 32.7 µM (inactive) | 12.9 µM (inactive) | 16.4 µM (inactive) | 19.1 µM (inactive) | 3.05 µM (inactive) | 33 µM (inactive) | 17.3 µM (inactive) | 18.1 µM (inactive) | 22.3 µM (inactive) | 50 µM (inactive) | 64.6 µM (inactive) | – | 23.6 µM (inactive) | 15.1 µM (inactive) | 30.3 µM (inactive) | 19 µM (inactive) |
| COc1cc2c(oc(=O)c3c4occc4cc(OC)c23)c2cccc(O)c12 | > 100 µM (inactive) | > 100 µM (inactive) | > 100 µM (inactive) | > 100 µM (inactive) | > 100 µM (inactive) | > 100 µM (inactive) | > 100 µM (inactive) | > 100 µM (inactive) | > 100 µM (inactive) | > 100 µM (inactive) | > 100 µM (inactive) | 83.6 µM (inactive) | > 100 µM (inactive) | > 100 µM (inactive) | > 100 µM (inactive) | – | > 100 µM (inactive) | > 100 µM (inactive) |
| COC(=O)C1=C(O)c2cc(OC)c(OC)cc2C(c2ccc(OC)c(OC)c2)C1 (stereo not given) | > 100 µM (inactive) | 71.6 µM (inactive) | > 100 µM (inactive) | 38.6 µM (inactive) | > 100 µM (inactive) | 69.3 µM (inactive) | – | > 100 µM (inactive) | > 100 µM (inactive) | > 100 µM (inactive) | 99.8 µM (inactive) | > 100 µM (inactive) | – | > 100 µM (inactive) | > 100 µM (inactive) | 38.5 µM (inactive) | > 100 µM (inactive) | 56.4 µM (inactive) |
| N#Cc1cn(-c2c3ccccc3nc3ccccc23)c(=O)[nH]c1=O | – | 4.27 µM (inactive) | 13.8 µM (inactive) | 5.43 µM (inactive) | 21.5 µM (inactive) | 4.74 µM (inactive) | 4.03 µM (inactive) | – | 11.6 µM (inactive) | > 10 µM (inactive) | 15.8 µM (inactive) | 16.7 µM (inactive) | 22.2 µM (inactive) | 14 µM (inactive) | 16.8 µM (inactive) | 3.31 µM (inactive) | 3.6 µM (inactive) | 3.95 µM (inactive) |
| CC#C[P+](c1ccccc1)(c1ccccc1)c1ccccc1 | 2.83 µM (inactive) | 3.25 µM (inactive) | 8.55 µM (inactive) | 1.35 µM (inactive) | 4.09 µM (inactive) | 2.09 µM (inactive) | 0.284 µM (active) | 3.13 µM (inactive) | 1.88 µM (inactive) | 2.06 µM (inactive) | 3.72 µM (inactive) | 2.43 µM (inactive) | 3.3 µM (inactive) | – | 12.2 µM (inactive) | 2.88 µM (inactive) | 14.6 µM (inactive) | 2.56 µM (inactive) |
